Experimental findings from BigSolDB 2.1 are described below.

Molecules are shown by their SMILES.

The conditions of this data set: in n-hexane.

By solubility (mole fraction) is commonly meant solubility expressed as the solute's share of all molecules. Regarding `NC1=NCCC2(CCCCC2)S1`, the solubility (mole fraction) is, setting by setting: (293.15 K) 3.81e-05; (298.15 K) 5.62e-05; (303.15 K) 7.2e-05; (310.15 K) 0.000105; (315.15 K) 0.000129.
In the same order, the values of `CCNC1=NCCC2(CCCCC2)S1` are 0.0025, 0.0028, 0.0031, 0.0037 and 0.0043.
For `CNC1=NCCC2(CCCCC2)S1`, the solubility (mole fraction) turned out to be 5.39e-05 (293.15 K); 6.26e-05 (298.15 K); 6.91e-05 (303.15 K); 8.03e-05 (310.15 K); 8.67e-05 (315.15 K).
